Where “and” joins values, the source holds several entries; their conditions need not be identical. Equal values may be shown once.
Molecular target: T1, E. coli DNA gyrase (Escherichia coli, UniProt P0AES4+P0AES6)
T1 construct: made in house; host or cells: strains overexpressing each subunit individually
Assay: In Vitro DNA Gyrase Assay (supercoiling of relaxed pBR322, EtBr-stained agarose gel)
Type: biochemical
Conditions: Gyrase IC50 (μM), E. coli DNA gyrase holoenzyme A2B2; substrate relaxed pBR322; relaxed vs. supercoiled DNA on 0.8% agarose gel
Excerpt: DNA gyrase is a bacterial topoisomerase that introduces negative supercoils into DNA. The DNA gyrase assay measures the degree of enzymatic activity by quantitating relative amounts of relaxed vs. supercoiled DNA on an EtBr-stained 0.8% agarose gel. The substrate is relaxed pBR322. The enzyme is E. coli DNA gyrase which is purified from strains overexpressing each of the subunits individually (there are two: A and B and the holoenzyme consists of the heterodimer A2B2). See for example, Hallett et al. Cloning of the DNA gyrase genes under tac promoter control: overproduction of the gyrase A and B proteins. Gene 93: 139-142 (1990); Simon et al. Biochemical complementation studies in vitro of gyrase subunits from different species. FEBS Lett 373:88-92 (1995); and O'Dea et al. Mutations in the B subunit of Escherichia coli DNA gyrase that affect ATP-dependent reactions. J. Biol Chem 1996 271:9723-9 (1996).
In the below chart, racemic mixtures are denoted with (±)- and enantiomerically enriched samples are denoted by (−)- or (+)-.

T1 sequence (P0AES4 whole entry, one chain of several): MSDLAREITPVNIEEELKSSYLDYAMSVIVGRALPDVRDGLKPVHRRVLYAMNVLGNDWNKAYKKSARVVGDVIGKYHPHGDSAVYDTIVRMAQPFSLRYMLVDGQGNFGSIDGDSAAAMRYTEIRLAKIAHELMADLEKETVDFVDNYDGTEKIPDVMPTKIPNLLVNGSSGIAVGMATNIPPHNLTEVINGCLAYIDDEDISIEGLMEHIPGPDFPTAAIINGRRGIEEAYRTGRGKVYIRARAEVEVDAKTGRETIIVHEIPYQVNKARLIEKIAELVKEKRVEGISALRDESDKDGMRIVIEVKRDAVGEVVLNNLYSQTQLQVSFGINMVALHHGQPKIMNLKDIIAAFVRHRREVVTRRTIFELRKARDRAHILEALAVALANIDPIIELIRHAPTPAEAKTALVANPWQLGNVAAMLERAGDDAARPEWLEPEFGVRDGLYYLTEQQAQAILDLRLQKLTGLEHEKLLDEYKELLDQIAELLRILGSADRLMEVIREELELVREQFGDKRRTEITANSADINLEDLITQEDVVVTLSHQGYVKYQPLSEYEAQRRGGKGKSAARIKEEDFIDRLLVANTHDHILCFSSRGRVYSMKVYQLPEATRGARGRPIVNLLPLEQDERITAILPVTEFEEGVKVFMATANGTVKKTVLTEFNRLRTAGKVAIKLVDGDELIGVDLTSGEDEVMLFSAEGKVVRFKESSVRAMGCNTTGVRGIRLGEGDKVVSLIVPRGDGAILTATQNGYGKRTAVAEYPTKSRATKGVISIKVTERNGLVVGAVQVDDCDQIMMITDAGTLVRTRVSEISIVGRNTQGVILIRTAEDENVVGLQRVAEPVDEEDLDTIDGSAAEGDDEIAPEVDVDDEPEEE

SMILES	IC50
CC(=O)c1ccc2c(c1)CC1(C(=O)NC(=O)NC1=O)[C@H]1[C@H](C)O[C@H](C)CN21 (racemic) [Example 18, 8-Acetyl-1,2,4,4a-tetrahydro-2,4-dimethylspiro[[1,4]oxazino[4,3-a]quinoline-5(6H),5′(2H)-pyrimidine)-2′,4′,6′(1′H,3′H)-trione]	8.4 µM
C[C@@H]1CN2c3ccc([N+](=O)[O-])cc3CC3(C(=O)NC(=O)NC3=O)[C@@H]2[C@@H](C)O1 (racemic) [Example 1]	19 µM
C[C@@H]1OCCN2c3ccc([N+](=O)[O-])cc3CC3(C(=O)NC(=O)NC3=O)[C@@H]12 (stereo in doubt) [Example 25]	18.2 µM and 32 µM
COC(=O)c1ccc2c(c1)CC1(C(=O)NC(=O)NC1=O)[C@H]1[C@H](C)O[C@H](C)CN21 (relative stereo) [Example 43, rel-Methyl (2R,4S,4aS)1,1′-2,3′,4,4a,6′-Octahydro-2,4-dimethyl-2′,4′,6′-trioxospiro[[1,4]oxazino[4,3-a]quinoline-5(6H),5′(2′H)-pyrimidine]-8-carboxylate]	24 µM
C[C@@H]1CN2c3ccc(C#N)cc3CC3(C(=O)NC(=O)NC3=O)[C@H]2[C@H](C)O1 [Example 6, 1,1′,2,3′4,4′,4a, 6′-Octrahydro-2,4′,6′-trioxospiro[[1,4]oxazino[4,3-a]quinoline-5(6H), 5′(2′H)-pyrimidine]-8-carbonitrile]	13.8 µM
C[C@@H]1CN2c3ccccc3CC3(C(=O)NC(=O)NC3=O)[C@H]2[C@H](C)O1 (racemic) [Example 2, 1,2,4,4a-Tetrahydro-cis-2,4-dimethylspiro[[1,4]oxazino[4,3-a]quinoline-5(6H), 5′(2′H)-pyrimidine]-2′,4′,6′(1′H,3′H)-trione]	45.6 µM
C[C@@H]1CN2c3ccc([N+](=O)[O-])cc3CC3(C(=O)NC(=O)NC3=O)[C@H]2[C@H](C)O1 (stereo in doubt) [Example 1]	11.8 µM and 6.1 µM
C[C@@H]1CN2c3ccc(F)cc3CC3(C(=O)NC(=O)NC3=O)[C@H]2[C@H](C)O1 (racemic) [Example 4, 8-Fluoro-1,2,4,4a-tetrahydro-cis-2,4-dimethylspiro[[1,4]oxazino[4,3-a]quinoline-5(6H), 5′(2′H)-pyrimidine]-2′,4′,6′(1′H,3′H)-trione]	70.2 µM

From patent US8420646B2, “Tricyclic tetrahydroquinoline antibacterial agents” (PAH P&U LLC, priority 2002, dated 2013)
